# Data taken from ChEMBL document CHEMBL4715697, “Synthesis and biological activity of benzamide DNA minor groove binders” (2016).
# Tests used:
# Format in all cases: functional
# SK-MEL-5 = test: Growth inhibition of human SK-MEL-5 cells assessed as cell growth at 0.01 uM incubated for 48 hrs by sulforhodamine B assay relative to control; details: read-out: Activity
# OVCAR-5 = test: Growth inhibition of human OVCAR-5 cells assessed as cell growth at 0.01 uM incubated for 48 hrs by sulforhodamine B assay relative to control; details: read-out: Activity
# 786-0 = test: Growth inhibition of human 786-0 cells assessed as cell growth at 0.01 uM incubated for 48 hrs by sulforhodamine B assay relative to control; details: read-out: Activity
# RXF 393 [1] = test: Growth inhibition of human RXF 393 cells assessed as cell growth at 0.01 uM incubated for 48 hrs by sulforhodamine B assay relative to control; details: read-out: Activity
# UO-31 = test: Growth inhibition of human UO-31 cells assessed as cell growth at 0.01 uM incubated for 48 hrs by sulforhodamine B assay relative to control; details: read-out: Activity
# K562 = test: Growth inhibition of human K562 cells assessed as cell growth at 0.1 uM incubated for 48 hrs by sulforhodamine B assay relative to control; details: read-out: Activity
# RPMI-8226 = test: Growth inhibition of human RPMI-8226 cells assessed as cell growth at 0.1 uM incubated for 48 hrs by sulforhodamine B assay relative to control; details: read-out: Activity
# SR [2] = test: Growth inhibition of human SR cells assessed as cell growth at 0.1 uM incubated for 48 hrs by sulforhodamine B assay relative to control; details: read-out: Activity
# NCI-H23 [3] = test: Growth inhibition of human NCI-H23 cells assessed as cell growth at 0.1 uM incubated for 48 hrs by sulforhodamine B assay relative to control; details: read-out: Activity
# HCT-15 [4] = test: Growth inhibition of human HCT-15 cells assessed as cell growth at 0.1 uM incubated for 48 hrs by sulforhodamine B assay relative to control; details: read-out: Activity
# HT-29 = test: Growth inhibition of human HT-29 cells assessed as cell growth at 0.1 uM incubated for 48 hrs by sulforhodamine B assay relative to control; details: read-out: Activity
# M14 = test: Growth inhibition of human M14 cells assessed as cell growth at 0.1 uM incubated for 48 hrs by sulforhodamine B assay relative to control; details: read-out: Activity
# RXF 393 [5] = test: Growth inhibition of human RXF 393 cells assessed as cell growth at 0.1 uM incubated for 48 hrs by sulforhodamine B assay relative to control; details: read-out: Activity
# SR [6] = test: Growth inhibition of human SR cells assessed as cell growth at 1 uM incubated for 48 hrs by sulforhodamine B assay relative to control; details: read-out: Activity
# NCI-H23 [7] = test: Growth inhibition of human NCI-H23 cells assessed as cell growth at 1 uM incubated for 48 hrs by sulforhodamine B assay relative to control; details: read-out: Activity
# NCI-H460 = test: Growth inhibition of human NCI-H460 cells assessed as cell growth at 1 uM incubated for 48 hrs by sulforhodamine B assay relative to control; details: read-out: Activity
# HCT-15 [8] = test: Growth inhibition of human HCT-15 cells assessed as cell growth at 1 uM incubated for 48 hrs by sulforhodamine B assay relative to control; details: read-out: Activity
# SF-539 = test: Growth inhibition of human SF-539 cells assessed as cell growth at 1 uM incubated for 48 hrs by sulforhodamine B assay relative to control; details: read-out: Activity
# ACHN = test: Growth inhibition of human ACHN cells assessed as cell growth at 1 uM incubated for 48 hrs by sulforhodamine B assay relative to control; details: read-out: Activity
# MOLT-4 = test: Growth inhibition of human MOLT-4 cells assessed as cell growth at 100 uM incubated for 48 hrs by sulforhodamine B assay relative to control; details: read-out: Activity
# EKVX = test: Growth inhibition of human EKVX cells assessed as cell growth at 100 uM incubated for 48 hrs by sulforhodamine B assay relative to control; details: read-out: Activity
# SW-620 = test: Growth inhibition of human SW-620 cells assessed as cell growth at 100 uM incubated for 48 hrs by sulforhodamine B assay relative to control; details: read-out: Activity
# U-251 = test: Growth inhibition of human U-251 cells assessed as cell growth at 100 uM incubated for 48 hrs by sulforhodamine B assay relative to control; details: read-out: Activity
# SK-MEL-28 = test: Growth inhibition of human SK-MEL-28 cells assessed as cell growth at 100 uM incubated for 48 hrs by sulforhodamine B assay relative to control; details: read-out: Activity
# UACC-62 = test: Growth inhibition of human UACC-62 cells assessed as cell growth at 100 uM incubated for 48 hrs by sulforhodamine B assay relative to control; details: read-out: Activity
# OVCAR-8 = test: Growth inhibition of human OVCAR-8 cells assessed as cell growth at 100 uM incubated for 48 hrs by sulforhodamine B assay relative to control; details: read-out: Activity
# SK-OV-3 = test: Growth inhibition of human SK-OV-3 cells assessed as cell growth at 100 uM incubated for 48 hrs by sulforhodamine B assay relative to control; details: read-out: Activity
# SN12C = test: Growth inhibition of human SN12C cells assessed as cell growth at 100 uM incubated for 48 hrs by sulforhodamine B assay relative to control; details: read-out: Activity
# CCRF-CEM = test: Growth inhibition of human CCRF-CEM cells incubated for 48 hrs by sulforhodamine B assay
# HL-60(TB) = test: Growth inhibition of human HL-60(TB) cells incubated for 48 hrs by sulforhodamine B assay
# HOP-62 = test: Growth inhibition of human HOP-62 cells incubated for 48 hrs by sulforhodamine B assay
# NCI-H226 = test: Growth inhibition of human NCI-H226 cells incubated for 48 hrs by sulforhodamine B assay
# NCI-H322M = test: Growth inhibition of human NCI-H322M cells incubated for 48 hrs by sulforhodamine B assay
# CAKI-1 = test: Growth inhibition of human CAKI-1 cells incubated for 48 hrs by sulforhodamine B assay
# MCF7 = test: Growth inhibition of human MCF7 cells incubated for 48 hrs by sulforhodamine B assay
# [9] = read-out: LC50 (the source's name)
# [10] = read-out: pLC50 (the source's name) (converted)
structure (smiles),measurement,setting,value
CC(=O)Nc1cc(CCl)cc(NC(=O)c2ccc(C(=O)Nc3cccc(NC(=O)CCCN(C)C)c3)cc2)c1,growth at 0.01 µM,SK-MEL-5,96%
same,growth at 0.01 µM,OVCAR-5,92%
same,growth at 0.01 µM,786-0,106%
same,growth at 0.01 µM,RXF 393 [1],96%
same,growth at 0.01 µM,UO-31,94%
same,growth at 0.1 µM,K562,99%
same,growth at 0.1 µM,RPMI-8226,113%
same,growth at 0.1 µM,SR [2],107%
same,growth at 0.1 µM,NCI-H23 [3],98%
same,growth at 0.1 µM,HCT-15 [4],88%
same,growth at 0.1 µM,HT-29,101%
same,growth at 0.1 µM,M14,102%
same,growth at 0.1 µM,RXF 393 [5],94%
same,growth at 1 µM,SR [6],118%
same,growth at 1 µM,NCI-H23 [7],93%
same,growth at 1 µM,NCI-H460,109%
same,growth at 1 µM,HCT-15 [8],90%
same,growth at 1 µM,SF-539,104%
same,growth at 1 µM,ACHN,96%
same,growth at 100 µM,MOLT-4,99%
same,growth at 100 µM,EKVX,84%
same,growth at 100 µM,SW-620,92%
same,growth at 100 µM,U-251,95%
same,growth at 100 µM,SK-MEL-28,92%
same,growth at 100 µM,UACC-62,84%
same,growth at 100 µM,OVCAR-8,96%
same,growth at 100 µM,SK-OV-3,109%
same,growth at 100 µM,SN12C,102%
same,GI50,CCRF-CEM; read-out: GI50,22.4 µM
same,CC50,CCRF-CEM; [9],78.2 µM
same,TGI,CCRF-CEM; read-out: TGI,41.8 µM
same,GI50,CCRF-CEM; read-out: pGI50 (converted),22.4 µM
same,CC50,CCRF-CEM; [10],77.6 µM
same,TGI,CCRF-CEM; read-out: pTGI (converted),41.7 µM
same,GI50,HL-60(TB); read-out: GI50,> 100 µM
same,LC50,HL-60(TB); read-out: LC50,> 100 µM
same,TGI,HL-60(TB); read-out: TGI,> 100 µM
same,GI50,HL-60(TB); read-out: pGI50 (converted),> 100 µM
same,LC50,HL-60(TB); read-out: pLC50 (converted),> 100 µM
same,TGI,HL-60(TB); read-out: pTGI,> 100 µM
same,GI50,HOP-62; read-out: GI50,> 100 µM
same,CC50,HOP-62; [9],> 100 µM
same,TGI,HOP-62; read-out: TGI,> 100 µM
same,GI50,HOP-62; read-out: pGI50 (converted),> 100 µM
same,CC50,HOP-62; [10],> 100 µM
same,TGI,HOP-62; read-out: pTGI,> 100 µM
same,GI50,NCI-H226; read-out: GI50,> 100 µM
same,CC50,NCI-H226; [9],> 100 µM
same,TGI,NCI-H226; read-out: TGI,> 100 µM
same,GI50,NCI-H226; read-out: pGI50 (converted),> 100 µM
same,CC50,NCI-H226; [10],> 100 µM
same,TGI,NCI-H226; read-out: pTGI,> 100 µM
same,GI50,NCI-H322M; read-out: GI50,> 100 µM
same,CC50,NCI-H322M; [9],> 100 µM
same,TGI,NCI-H322M; read-out: TGI,> 100 µM
same,GI50,NCI-H322M; read-out: pGI50 (converted),> 100 µM
same,CC50,NCI-H322M; [10],> 100 µM
same,TGI,NCI-H322M; read-out: pTGI,> 100 µM
same,GI50,CAKI-1; read-out: GI50,> 100 µM
same,CC50,CAKI-1; [9],> 100 µM
same,TGI,CAKI-1; read-out: TGI,> 100 µM
same,GI50,CAKI-1; read-out: pGI50 (converted),> 100 µM
same,CC50,CAKI-1; [10],> 100 µM
same,TGI,CAKI-1; read-out: pTGI,> 100 µM
same,GI50,MCF7; read-out: GI50,30.1 µM
same,CC50,MCF7; [9],> 100 µM
same,TGI,MCF7; read-out: TGI,> 100 µM
same,GI50,MCF7; read-out: pGI50 (converted),30.2 µM
same,CC50,MCF7; [10],> 100 µM
same,TGI,MCF7; read-out: pTGI,> 100 µM
